Data published in paper PMC10494213 (iScience, 2023).
Entries after “also recorded” stand apart in the source; their conditions may differ.

Assays:
[1] = cited from earlier work
[2] = Uptake of CMZ in zebrafish muscle during 7-day water exposure; format: in vivo, zebrafish (Danio rerio); details: male, other: water exposure (waterborne); for concentration at 7 d: muscle; for Kp at 7 d: muscle/plasma
[3] = Measured fish plasma concentration; format: in vivo, zebrafish (Danio rerio); details: for Measured FPC/Predicted FPC / Measured FPC: 7-day exposure; for Measured FPC: mean ± SD, n = 3
acetylcholine (ACh) = test: ACh level in whole zebrafish by ELISA after 7-day CMZ exposure; format: in vivo; details: 7-day exposure 1, 10, 100, 1000 μg/L vs control group
glutamic acid (Glu) = test: Glu level in whole zebrafish by ELISA after 7-day CMZ exposure; format: in vivo; details: seven days of CMZ exposure vs control group (p<0.05; 1000 μg/L p<0.01)
[4] = test system: gamma-aminobutyric acid (GABA); test: GABA level in whole zebrafish by ELISA after 7-day CMZ exposure; format: in vivo; details: seven days of CMZ exposure vs control group (p<0.05; 1000 μg/L p<0.01)
[5] = test system: acetylcholinesterase (AChE); test: AChE in whole zebrafish by ELISA after 7-day CMZ exposure; format: in vivo; details: 7-day exposure 1, 10, 100, 1000 μg/L vs control group
abat = test: Real-time PCR of neurotransmitter-related gene abat; format: in vivo, zebrafish; details: seven days, four concentrations (1, 10, 100, 1000 μg/L) vs control, p<0.05
zebrafish larvae = test: Zebrafish larval motor behavior; format: in vivo; details: 7 days exposure
[6] = human; cited from earlier work
AChE = details: muscle (10000 μg/L) and head (10 and 10000 μg/L), exposure of 63 days, p<0.05; cited from earlier work
GABA = details: zebrafish embryos, CMZ 1, 10, 100 μg/L; cited from earlier work
Glu = details: zebrafish embryos, CMZ 1, 10, 100 μg/L; cited from earlier work
[7] = test system: zebrafish embryos and larvae; details: 1 μg/L; cited from earlier work
spermatozoa = details: 2.0 and 20 mg/L; cited from earlier work
[8] = carp, Coote natural Marsh in Canada; cited from earlier work
fish = details: cited from earlier work
[9] = EEC 3, 10, 30 μg/L; cited from earlier work

For `CCC(=O)OCC(=O)[C@@]1(OC(=O)CC)[C@@H](C)C[C@H]2[C@@H]3CCC4=CC(=O)C=C[C@]4(C)[C@@]3(Cl)[C@@H](O)C[C@@]21C` [Beclomethasone Dipropionate, beclomethasone dipropionate], the “log Kow” value [1] is given as 3.69.
For `NC(=O)N1c2ccccc2C=Cc2ccccc21` [CMZ, Carbamazepine], the concentration at 7 d ([2]; 10 μg/L) was 35.4 ± 7.9 ng/g, the concentration at 7 d ([2]; 100 μg/L) was 420 ± 77.5 ng/g and the concentration at 7 d ([2]; 1000 μg/L) was 2330 ± 127 ng/g. It also gave a Kp at 7 d ([2]; 10 μg/L) of 0.26 ± 0.06, a Kp at 7 d ([2]; 100 μg/L) of 0.14 ± 0.03 and a Kp at 7 d ([2]; 1000 μg/L) of 0.54 ± 0.03. For the same molecule, the “Measured FPC/Predicted FPC” value ([3]; external 1 μg/L) was 1.84 ± 0.27, the “Measured FPC” value ([3]; external 1 μg/L (nominal)) was 25.47 ± 3.78 µg/L and the “Measured FPC” value ([3]; external 10 μg/L (nominal)) was 1311.10 ± 80.26 µg/L. For the same molecule, the “Measured FPC/Predicted FPC” value ([3]; external 100 μg/L) was 2.14 ± 0.08, the “Measured FPC” value ([3]; external 100 μg/L (nominal)) was 2953.30 ± 109.20 µg/L and the “Measured FPC/Predicted FPC” value ([3]; external 1000 μg/L) was 0.31 ± 0.01. For the same molecule, the “measured FPC value as share of the predicted value” ([3]; external 1000 μg/L) was 31.05%, the concentration at 7 d ([3]; male, AB, zebrafish, plasma, other: water exposure (waterborne), corresponding FPCs, low ambient exposure 1 and 10 μg/L) was 25.5 to 1310 ng/mL and the ER values ([3]; ratio of HTPC and FSSPC, Equation 3, all exposure concentrations) was < 1000. For the same molecule, the “level of ACh” value (acetylcholine (ACh)) was “gradually decreased; also recorded: significantly decreased”, the Glu level (glutamic acid (Glu)) was “appreciably increased” and the GABA level [4] was “appreciably increased”. The “level of AChE” value [5] was “gradually decreased; also recorded: significantly decreased”, the “expression of the abat gene” value (abat) was “significantly down-regulated” and the “total movement distance of the larvae” value (zebrafish larvae; 1000 μg/L, p<0.05) was “significantly higher than that of the control group”. For the same molecule, the “total distance traveled by larvae” value (zebrafish larvae; 1, 10, 100 μg/L, p>0.05) was “slightly lower than that of the control group, but there was no significant difference”, the Dlipw ([1]; pH 7.4, ref http://www.chemspider.com/Chemical) was 2.92 and the “maximum HTPC” value [6] was 12 mg/L. For the same molecule, the AChE activity (AChE) was “considerably increased”, the GABA concentration (GABA) was “increased” and the Glu concentration (Glu) was “reduced”. For the same molecule, the “movement and rest percentage of zebrafish embryos and larvae” value [7] was “significantly affected” and the “percentage of spermatozoa motile and velocity” value (spermatozoa) was “significantly reduce”.
In the case of `C#C[C@]1(O)CC[C@H]2[C@@H]3CCC4=CC(=O)CC[C@@H]4[C@H]3CC[C@@]21CC` [Levonorgestrel], the “log Kow” value [1] is listed as 3.72.
For `CCN(CC)C(=O)c1cccc(C)c1` [N,N-diethyl-m-toluamide], the “measured BCFs relative to the predicted BCFs” value [8] is listed as ≤ 3 times.
For `O=C1Nc2ccc(Cl)cc2C(c2ccccc2)=NC1O` (stereo not shown) [Oxazepam], the “behavior in the novel tank diving test” value (fish; fish exposed to 4.7 μg/L) is given as “statistically significant behavioral effect”.
For `CN[C@H]1CC[C@@H](c2ccc(Cl)c(Cl)c2)c2ccccc21` [Sertraline], the “Predicted FPC vs Measured FPC” value [9] is given as “very close” and the shelter-seeking behavior (fish; when the FPC exceeded the human therapeutic threshold) is given as “statistically significant reductions”.
In the case of `O=C1NC(=O)C(c2ccccc2)(c2ccccc2)N1` [phenytoin], the “measured BCFs relative to the predicted BCFs” value [8] is given as ≤ 3 times.
In the case of `O=C(Nc1ccc(Cl)cc1)Nc1ccc(Cl)c(Cl)c1` [triclocarban], the “measured BCFs relative to the predicted BCFs” value [8] is listed as ≤ 3 times.
